Test results: ChEMBL document CHEMBL1128953, “Solid-phase synthesis of peptidosulfonamide containing peptides derived from Leu-enkephalin” (Bioorg Med Chem Lett, 1996)
Peptide text beside a SMILES is read from it. * marks the point of attachment. X1 = CC(C)C[C@@H](CS(N)(=O)=O)N*

experiment: Compound was tested for inhibition of anti-beta-endorphin monoclonal antibody by using ELISA assay.; format: functional

Compound | IC50 [µM]
CC(C)C[C@H](NC(=O)[C@H](Cc1ccccc1)NC(=O)CNS(=O)(=O)CCNC(=O)[C@@H](N)Cc1ccc(O)cc1)C(N)=O | 75
CC(C)C[C@H](NC(=O)[C@H](Cc1ccccc1)NS(=O)(=O)CCNC(=O)CNC(=O)[C@@H](N)Cc1ccc(O)cc1)C(N)=O | 85
CC(C)C[C@@H](CS(N)(=O)=O)NC(=O)[C@H](Cc1ccccc1)NC(=O)CNC(=O)CNC(=O)[C@@H](N)Cc1ccc(O)cc1 (H-YGGF-X1) | 0.1
CC(C)C[C@H](NC(=O)[C@H](Cc1ccccc1)NC(=O)CNC(=O)CNC(=O)[C@@H](N)Cc1ccc(O)cc1)C(N)=O [[LEU5]ENKEPHALIN] | 0.07
CC(C)C[C@H](NC(=O)[C@H](Cc1ccccc1)NS(=O)(=O)CCNC(=O)CNC(=O)[C@@H](N)Cc1ccc(O)cc1)C(=O)O | > 200
CC(C)C[C@H](NC(=O)[C@H](Cc1ccccc1)NC(=O)CNS(=O)(=O)CCNC(=O)[C@@H](N)Cc1ccc(O)cc1)C(=O)O | > 200
CC(C)C[C@H](NS(=O)(=O)C[C@H](Cc1ccccc1)NC(=O)CNC(=O)CNC(=O)[C@@H](N)Cc1ccc(O)cc1)C(=O)O | 5
CC(C)C[C@H](NS(=O)(=O)C[C@H](Cc1ccccc1)NC(=O)CNC(=O)CNC(=O)[C@@H](N)Cc1ccc(O)cc1)C(N)=O | 0.9
